Measurements published in patent publication US10822376B2, “Biologically active peptides” (Baxalta Incorporated, priority 2008, dated 2020).
Values after ≈ are worked out from the molar mass of the structure shown. Where two headings read alike, the source gives them in different places. Where a SMILES comes first, the peptide text is derived from it. Where no end group is shown, it is not given here. [ ]: non-standard residue; d: D form.

Assays:
[1] = tested on: Factor XI deficient human plasma; assay: DDPTGA (reagent B) in FXI depleted plasma; details: compounds at 50 μM and 80, 90 or 100 μM
Method: (§1) The Defined Dual-Pathway Thrombin Generation Assay is performed as described below, using a commercial test kit (Technothrombin TGA, Technoclone GmbH, Vienna, Austria). […] USA) are incubated four minutes at 37° C. Preferably, Reagent C high is used. Thrombin generation is started by the addition of 40 μl of one of several types of human plasma (37° C.). […] By deviating the original fluorescence data the amount of generated thrombin is calculated from a standard curve constructed using a concentration range of thrombin.
(§2) The in vitro thrombin generation assay based on the cleavage of Z-GGR-AMC to release the fluorophore AMC, described in the specific description, i.e. the Defined Dual-Pathway Thrombin Generation Assay was used to characterise the effect of the compounds in several depleted human plasmas. […] 10 μl peptide dilution, 40 μl TGA substrate and 40 μl plasma were used as described in the specific description.
(§3) The plasmas used in the experiments were fresh frozen and were deficient in Factor V, Factor VII/VIIa, Factor VIII, Factor X or Factor XI (George King Bio-Medical, Inc.). Residual coagulation factor levels of deficient plasmas were specified as less than 1%.
(§4) For each depleted plasma used in the experiments, compounds were tested at two concentrations, namely 50 μM and 80, 90 or 100 μM. A negative control was used, in which no test compound was included.

[2] = tested on: Factor V deficient human plasma; assay: DDPTGA (reagent B) in FV depleted plasma; details: compounds at 50 μM and 80, 90 or 100 μM
Method: as §1, §2, §3, §4

[3] = tested on: human FVIII inhibited plasma; assay: Defined Intrinsic Thrombin Generation Assay (DITGA, triggered by FXIa and phospholipids); assay type: biochemical; details: for Activity in the Defined Intrinsic Thrombin Generation Assay: summary
FVIII deficient plasma = assay: Defined Dual-Pathway Thrombin Generation Assay (DDPTGA, reagent C high), FVIII deficient plasma; assay type: biochemical, human; details: for Peak IIa FVIII EU / Peak Time FVIII EU: FVIII deficient plasma
physchem = details: for solubility kinetic: pH 7.4
Method: Aqueous solubility is measured in PBS at pH 7.4 either in an assay provided by Cerep (France, Catalog ref. 900-11a) or according to the following protocol. The aim of this procedure is to determine the solubility of a drug candidate (analyte) in a buffer, by estimating the saturation concentration of the candidate in the buffer using HPLC. A known concentration of the candidate in an organic solvent is used as a standard. A stock solution of the test compound in DMSO must be prepared as the initial step. […] DMSO stock-solutions are diluted to a final concentration of 50 μM with DMSO (100% reference-solution) and buffer (test-solution) to provide a minimum volume of 500 μL of each. Both solutions are shaken at 25° C. at 950 rpm in an Eppendorf “thermomixer comfort” for at least 60 min. The suspension is centrifuged at 22 330 g for at least two min and 100 μL of the supernatant is transferred into polypropylene-inserts placed in glass vials and closed by snap-ring caps. Alternatively the solutions can be prepared in microtiter plates with half of the previously described starting solvent volume. For the determination of the solubility all samples are analyzed by HPLC in triplicate. Injection volume is at least 10 μL. The obtained data are analyzed by “Chemstation-software” (Agilent, Waldbronn, Germany). The peaks from the analyses of the organic solutions are integrated and the arithmetic mean is reported as “AUC 1” (reference area of known amount injected at the HPLC). […] The ratio of the mean “AUC 2” and “AUC 1” is calculated and thus the percentage of the dissolved amount of compound in buffer is obtained and solubility can be reported in μM.

[4] = tested on: Factor X deficient human plasma; assay: DDPTGA (reagent B) in FX depleted plasma; details: compounds at 50 μM and 80, 90 or 100 μM
Method: as §1, §2, §3, §4

Acute toxicology in mice = assay type: in vivo, mouse; details: C57BL/6, mouse, in vivo, 60 minutes following administration, read-out: Max dose within toxicity category: No detected toxicity
Method: Toxicology studies involved monitoring of attitude changes due to toxic effects immediately after application and twice daily; monitoring of body weight; histopathology of brain, heart, kidney, liver, lung. Experiments were performed in C57131/6 mice.
C57BI/6 mice weighing 18-20 g were administered with compounds in a suitable vehicle i.v. in the tail vein or i.p. or s.c at 10 ml/kg. Quantities of the compounds administered were in the range of 0.075 to 125 mg/kg (i.v.), 15-125 mg/kg (i.p.) and 125 mg/kg (s.c.). There were four mice per group. Attitude changes due to toxic effects were monitored immediately after administration of the compound and for 60 minutes thereafter. Body weight was monitored for five days after administration. At day 5 after administration, mice were culled and autopsy performed. Brain, heart, kidney, liver, lung and spleen were biopsied.
In the above table, the maximum dose tested giving rise to no detected toxicity, some toxicity or severe toxicity over the period of 60 minutes following administration is reported. “No detected toxicity” indicates no acute toxic observations.

[5] = tested on: Factor VII/VIIa deficient human plasma; assay: DDPTGA (reagent B) in FVII depleted plasma; details: compounds at 50 μM and 80, 90 or 100 μM
Method: as §1, §2, §3, §4

[6] = tested on: Factor VIII deficient human plasma; assay: DDPTGA (reagent B) in FVIII depleted plasma; assay type: biochemical; details: compounds at 50 μM and 80, 90 or 100 μM; further: key: '+' means stimulates; '−' means does not stimulate
From the text: Preferably, Reagent C high is used.

FVIII inhibited plasma = assay: Defined Dual-Pathway Thrombin Generation Assay (DDPTGA, reagent C high), FVIII inhibited plasma; assay type: biochemical, human; details: for Peak IIa FEIBA EU / Peak IIa FVIIa EU / Peak Time FEIBA EU / Peak Time FVIIa EU: FVIII inhibited plasma; for Activity in the Defined Dual-Pathway Thrombin Generation Assay: summary, FVIII inhibited or deficient plasma
HERG channel = HERG channel (Homo sapiens, UniProt Q12809); assay type: cell-based
Method: It was tested at 10 μM and the data were compared with historical values determined at Cerep.

[7] = pH 7.4, Solubility in PBS pH 7.4

Chain of HERG channel (Q12809 whole entry): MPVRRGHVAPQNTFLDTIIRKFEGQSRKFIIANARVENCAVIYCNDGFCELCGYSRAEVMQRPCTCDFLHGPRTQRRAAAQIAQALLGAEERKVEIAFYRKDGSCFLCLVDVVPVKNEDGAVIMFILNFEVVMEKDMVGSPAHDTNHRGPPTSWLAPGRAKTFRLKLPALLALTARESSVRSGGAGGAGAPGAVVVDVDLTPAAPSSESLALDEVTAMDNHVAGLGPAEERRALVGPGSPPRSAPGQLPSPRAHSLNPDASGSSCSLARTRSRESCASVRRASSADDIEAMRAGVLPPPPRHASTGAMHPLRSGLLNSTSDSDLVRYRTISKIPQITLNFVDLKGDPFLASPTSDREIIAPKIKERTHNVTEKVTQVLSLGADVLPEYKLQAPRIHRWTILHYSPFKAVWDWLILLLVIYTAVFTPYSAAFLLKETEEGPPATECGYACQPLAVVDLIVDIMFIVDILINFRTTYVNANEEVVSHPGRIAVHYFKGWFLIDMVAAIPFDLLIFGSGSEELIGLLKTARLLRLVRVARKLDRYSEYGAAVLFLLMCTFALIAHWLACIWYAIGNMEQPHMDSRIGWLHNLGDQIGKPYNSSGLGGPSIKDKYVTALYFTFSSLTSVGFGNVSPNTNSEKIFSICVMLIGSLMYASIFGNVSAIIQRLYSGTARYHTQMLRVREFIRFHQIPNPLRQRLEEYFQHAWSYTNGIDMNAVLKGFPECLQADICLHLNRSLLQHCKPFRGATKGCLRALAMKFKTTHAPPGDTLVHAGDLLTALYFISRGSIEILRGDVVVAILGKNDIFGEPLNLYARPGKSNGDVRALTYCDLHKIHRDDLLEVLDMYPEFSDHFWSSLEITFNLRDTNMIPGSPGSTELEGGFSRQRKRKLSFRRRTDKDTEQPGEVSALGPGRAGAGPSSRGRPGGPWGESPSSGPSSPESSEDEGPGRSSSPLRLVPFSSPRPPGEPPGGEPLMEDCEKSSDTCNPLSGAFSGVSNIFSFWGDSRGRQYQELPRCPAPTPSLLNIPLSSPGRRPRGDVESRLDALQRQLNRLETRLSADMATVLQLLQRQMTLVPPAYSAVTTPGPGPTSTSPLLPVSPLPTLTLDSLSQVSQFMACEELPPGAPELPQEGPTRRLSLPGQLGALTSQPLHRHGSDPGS

Compound	Stimulation of thrombin generation [1]	Stimulation of thrombin generation [2]	Thrombin peak time given as FEIBA equivalent activity ([3]; peptide 6.25 μM) [mU/ml]	Thrombin peak time given as FEIBA equivalent activity ([3]; peptide 12.5 μM) [mU/ml]	Thrombin peak time given as FEIBA equivalent activity ([3]; peptide 25 μM) [mU/ml]	Thrombin peak time given as FEIBA equivalent activity ([3]; peptide 50 μM) [mU/ml]	Thrombin peak time given as FEIBA equivalent activity ([3]; peptide 100 μM) [mU/ml]	Activity in the Defined Intrinsic Thrombin Generation Assay [3]	solubility kinetic (physchem) [µM]	solubility (physchem; pH 7.4, Aqueous solubility) [µM]	Stimulation of thrombin generation [4]	NOAEL at 1 h (Acute toxicology in mice; ip) [mg/kg]	NOAEL at 1 h (Acute toxicology in mice; iv) [mg/kg]	Stimulation of thrombin generation [5]	Stimulation of thrombin generation [6]	Activity in the Defined Dual-Pathway Thrombin Generation Assay (FVIII inhibited plasma)	HERG inhibition Rb+ efflux (% Inhibition at 10 μM) (HERG channel) [%]	Peak IIa FVIII EU (FVIII deficient plasma; peptide 50 μM)	Peak Time FVIII EU (FVIII deficient plasma; peptide 50 μM)	Peak IIa FEIBA EU (FVIII inhibited plasma; peptide 50 μM)	other results
CC[C@@H](C)[C@@H](NC(=O)[C@@H](CS)NC(C)=O)C(=O)N[C@H](CCSC)C(=O)N[C@H](Cc1ccccc1)C(=O)N[C@H](Cc1c[nH]c2ccccc12)C(=O)N[C@H](Cc1ccc(O)cc1)C(=O)N[C@H](CC(=O)O)C(=O)N[C@H](CCC(=O)O)C(=O)N[C@H](Cc1ccc(O)cc1)C(=O)N[C@H](CCC(=O)O)C(N)=O [Peptide B03, Ac-cimfwydeye-NH2] (Ac-[dC][dI][dM][dF][dW][dY][dD][dE][dY][dE]-NH2)	+	−	454	602	738	1030	1394	possess activity	114 (≈ 164 µg/mL)	114 (≈ 164 µg/mL)	+	15	1.5	+	+	possess activity	−2.1				Effect on both peak time and peak IIa of thrombin generation (FVIII deficient plasma; DDPTGA, comment on Table 10): positively affected; Peak IIa FVIII EU (FVIII deficient plasma; peptide 40 μM): 4.8 mU/ml; Peak Time FVIII EU (FVIII deficient plasma; peptide 40 μM): 8.7 mU/ml; Peak IIa FVIII EU (FVIII deficient plasma; peptide 100 μM): 5.3 mU/ml; Peak Time FVIII EU (FVIII deficient plasma; peptide 100 μM): 7.5 mU/ml; Peak IIa FEIBA EU (FVIII inhibited plasma; peptide 40 μM): 7.2 mU/ml; Peak IIa FVIIa EU (FVIII inhibited plasma; peptide 40 μM): 0.2 nM; Peak Time FEIBA EU (FVIII inhibited plasma; peptide 40 μM): BLS (BLS = below lowest standard.); Peak Time FVIIa EU (FVIII inhibited plasma; peptide 40 μM): BLS (BLS = below lowest standard.); Peak IIa FEIBA EU (FVIII inhibited plasma; peptide 100 μM): 12.3 mU/ml; Peak IIa FVIIa EU (FVIII inhibited plasma; peptide 100 μM): 0.6 nM; Peak Time FEIBA EU (FVIII inhibited plasma; peptide 100 μM): BLS (BLS = below lowest standard.); Peak Time FVIIa EU (FVIII inhibited plasma; peptide 100 μM): BLS (BLS = below lowest standard.)
Ac-PMKFDVWDLYFEIVW-NH2 [Peptide A02]	+	−	577	674	780	1018	1305	possess activity	35	35	+	25	25	+	+	possess activity	−3.3	BLS (BLS = below lowest standard.)	BLS (BLS = below lowest standard.)	BLS (BLS = below lowest standard.)	solubility (physchem; [7]): ≥ 25 µM; Peak IIa FVIIa EU (FVIII inhibited plasma; peptide 50 μM): BLS (BLS = below lowest standard.); Peak Time FEIBA EU (FVIII inhibited plasma; peptide 50 μM): 10.2 mU/ml; Peak Time FVIIa EU (FVIII inhibited plasma; peptide 50 μM): 0.4 nM
Ac-WDLYFEIVWE [Peptide A06]	+	+	571	750	843	919	879	possess activity		164	+	25	1	+	+	possess activity	−6.4	BLS (BLS = below lowest standard.)	BLS (BLS = below lowest standard.)	BLS (BLS = below lowest standard.)	Peak IIa FVIII EU (FVIII deficient plasma; peptide 100 μM): BLS (BLS = below lowest standard.); Peak Time FVIII EU (FVIII deficient plasma; peptide 100 μM): BLS (BLS = below lowest standard.); solubility (physchem; pH 7.4, Solubility in PBS): 164 µM; Peak IIa FVIIa EU (FVIII inhibited plasma; peptide 50 μM): BLS (BLS = below lowest standard.); Peak Time FEIBA EU (FVIII inhibited plasma; peptide 50 μM): BLS (BLS = below lowest standard.); Peak Time FVIIa EU (FVIII inhibited plasma; peptide 50 μM): BLS (BLS = below lowest standard.); Peak IIa FEIBA EU (FVIII inhibited plasma; peptide 100 μM): BLS (BLS = below lowest standard.); Peak IIa FVIIa EU (FVIII inhibited plasma; peptide 100 μM): BLS (BLS = below lowest standard.); Peak Time FEIBA EU (FVIII inhibited plasma; peptide 100 μM): BLS (BLS = below lowest standard.); Peak Time FVIIa EU (FVIII inhibited plasma; peptide 100 μM): 0.4 nM
H-ERMEFDVWDLYFEIVW-NH2 [Peptide A09]	+	−	600	742	896	1170	1365	possess activity	63	63	+		15	+	+	possess activity	−1.6	BLS (BLS = below lowest standard.)	27.2 mU/ml	8.6 mU/ml	Peak IIa FVIII EU (FVIII deficient plasma; peptide 25 μM): BLS (BLS = below lowest standard.); Peak Time FVIII EU (FVIII deficient plasma; peptide 25 μM): 15.6 mU/ml; solubility (physchem; [7]): ≥ 25 µM; Peak IIa FEIBA EU (FVIII inhibited plasma; peptide 25 μM): BLS (BLS = below lowest standard.); Peak IIa FVIIa EU (FVIII inhibited plasma; peptide 25 μM): BLS (BLS = below lowest standard.); Peak Time FEIBA EU (FVIII inhibited plasma; peptide 25 μM): 7.9 mU/ml; Peak Time FVIIa EU (FVIII inhibited plasma; peptide 25 μM): 0.2 nM; Peak IIa FVIIa EU (FVIII inhibited plasma; peptide 50 μM): BLS (BLS = below lowest standard.); Peak Time FEIBA EU (FVIII inhibited plasma; peptide 50 μM): BLS (BLS = below lowest standard.); Peak Time FVIIa EU (FVIII inhibited plasma; peptide 50 μM): BLS (BLS = below lowest standard.)
